Laboratory results taken from US20210348119A1, “COMPOSITIONS AND METHODS FOR CELL CULTURE” (The United States of America as Represented By The …, priority 2018, published 2021).

How the values were obtained:
H9 cells [1] = assay: Low seeding density screen for synergy with Chroman 1 and Emricasan; assay type: cell-based, human; settings: validation of qHTS hits
Method: To extend and maximize the use of Chroman 1 and Emricasan for low cell seeding density conditions and single cell cloning, we developed another combinatorial screening strategy. Experimental studies were performed that identified Trans-ISRIB and polyamines as additional cell survival-promoting factors. An assay was developed to screen for compounds that are capable of overcoming cellular stress associated with low cell seeding density. The experiments aimed to define the detection limit and signal strength of the CTG assay in order to detect single cells per well. H9 cells (obtained from WiCell) were used.
Dissociated stem cells were plated onto vitronectin-coated 1536-well plates at the per-well densities indicated on the X-axis. All the plates were prepared in duplicates. One set of plates was read with CTG right after dispensing (r1), and the other set was read 24 hours after (r2). The CTG fold change plotted on Y-axis was calculated as the ratio of r2 to r1 (r2/r1) to reflect cell survival and growth within 24 hours. […] The middle line within the box is the median cell growth. The upper and lower box hinges represent the 75th and 25th percentiles, whereas the upper and lower whiskers extend from the box hinge to the largest or lowest value no further than 1.5× distance between 25th and 75th percentile.

H9 cells [2] = assay: Colony formation at 25 cells/cm2; assay type: cell-based, human
Method: The experiments were performed validating the “hits” obtained from the primary screening. Pluripotent stem cells (H9 cells obtained from WiCell) were dissociated using TrypLE (Thermo-Fisher) and seeded into 6-well plates at a density of 25 cells/cm′.
Whole-well images (6-well plate) were captured with calcein green (0.5 μg/mL; Thermo Fisher Scientific, catalog number: C34852).
Systematic comparison of small molecule combinations and their effect on colony number and colony size of hESCs plated on vitronectin at 25 cells/cm^2 in StemFlex medium was performed. The quantification of the colony formation rate and median colony size was performed 6 days after plating.

O=C(COc1ccc(Cl)cc1)N[C@H]1CC[C@H](NC(=O)COc2ccc(Cl)cc2)CC1 [trans-ISRIB, N,N′-((1r,4r)-cyclohexane-1,4-diyl)bis(2-(4-chlorophenoxy)acetamide)]
cell survival at low density combined with 50 nM Chroman 1 and 5 μM Emricasan (H9 cells [1]): cell survival-promoting effect
cell survival when added to the combination of Chroman 1 and Emricasan (H9 cells [2]): further improved cell survival
